Data set [1] has as its system P. falciparum 3D7 parasites. The data set can be described thus: P. falciparum 3D7 asexual stage LDH assay (72 h). The class given is cell-based, Plasmodium falciparum. As to conditions: for EC50: Plasmodium falciparum, 3D7, 72 h, LDH activity of P. falciparum 3D7 parasites over 72 h, means and SDs, three or more experiments, read-out: Pf 3D7 EC50 (SD). Here is the method: To establish the SAR, synthesized analogs were assessed against the asexual stage parasite (72 h) using LDH as a proxy for parasite growth inhibition. Cytotoxicity was monitored against the human HepG2 cell line using Cell TitreGlo as a metabolic marker for cell growth.
P. falciparum 3D7 Asexual Stage LDH Assay. This is a platform assay is routinely undertaken at the Walter and Eliza Hall Institute and details on the protocol has been previously published. Briefly, 10-point dilution series of the compounds were prepared in 384 well assay plates using an Echo555 (Labcyte). Appropriate volumes of 10 mM compound stocks were transferred into the assay plates such that the starting concentration was 1 μM, with a 1 in 3-fold dilution series. All wells were backfilled with DMSO to 40 nL such that this remained constant (0.1 % DMSO). The positive growth control was 0.1 % DMSO and the negative growth control was 100 nM chloroquine. The parasite inoculum (40 μL) was dispensed into plates containing compounds using a Multidrop Combi dispenser (Thermo Scientific). […] Following 72 h growth, plates were sealed with parafilm and frozen at −80 °C overnight. Plates were thawed at room temperature for at least 4 h prior to LDH activity being measured. […] Plates were shaken to ensure mixing and absorbance at 650 nm was measured in an EnVision (PerkinElmer) plate reader after 30 min of incubation at room temperature. […] The equation used is sigmoidal dose response (variable slope), Y = bottom + (top − bottom)/(1 + 10((logEC50 − X) × Hill Slope)).

Data set [2] in a line: Human HepG2 growth inhibition assay (Cell TitreGlo, 48 h). It counts as cell-based. As to conditions: human, HepG2 cells, HepG2 cell growth inhibition over 48 h. Here is the method: To establish the SAR, synthesized analogs were assessed against the asexual stage parasite (72 h) using LDH as a proxy for parasite growth inhibition. Cytotoxicity was monitored against the human HepG2 cell line using Cell TitreGlo as a metabolic marker for cell growth. Cyt b inhibitors typically have high lipophilicity, and so calculated physicochemical properties were determined, while in vitro ADME was also collected on representative analogs to gauge their suitability for efficacy studies in a 4-day P. berghei model.
Human HepG2 Growth Inhibition Assay. This is a routine assay undertaken at the Walter and Eliza Hall Institute and the method has been previously published. HepG2 cells were cultured in Dulbeccos modified eagles medium (DMEM) supplemented with 10 % fetal calf serum (FCS), in a humidified incubator at 37 °C and 5 % CO2. Assay plates (Greiner #781098, 384 well, white, tissue culture treated) were prepared by transferring appropriate volumes of 10 mM compound stocks using an Echo555 (Labcyte) such that the starting concentration was 50 μM, with a 1:2-fold dilution series. All wells were backfilled with DMSO to […] such that this remained constant (0.5 % DMSO). The positive growth control was 0.5 % DMSO and the negative growth control was 10 μM Bortezomib. HepG2 cells were seeded with 1000 cells in 50 μL DMEM with 10 % FCS into each well of the assay plates using a Multidrop Combi dispenser (Thermo Scientific). Plates were incubated at 37 °C and 5 % CO2 for 48 h. Cytotoxicity was determined using Cell Titer Glo (Promega) and calculated as a percentage using DMSO as the positive growth control and 10 μM Bortezomib as a negative growth control. EC50 values were calculated by Dotmatics 5.3 and Spotfire 7.11.1 software using a nonlinear regression four-parameter fit analysis. The equation used is sigmoidal dose response (variable slope), Y = bottom + (top − bottom)/(1 + 10((logEC50 − X) × Hill Slope)).

Data set [3] can be described thus: Aqueous solubility (kinetic in PBS, pH 7.4). It counts as physicochemical. Conditions: phosphate buffered saline. Here is the method:
Solubility. The solubility assay was performed using a miniaturized shake flask method. A solution of phosphate buffered saline (PBS) and the test compound (200 μM) was incubated at 25 °C with constant shaking (600 rpm) for 2 h. The samples were filtered using a multiscreen solubility filter plate. The filtrate was half diluted in acetonitrile. A five-point linearity curve was prepared in PBS:acetonitrile (1:1, v/v) at 200, 150, 75, 25 and 2.5 μM. Blank, linearity and test samples (n = 2) were transferred to a UV readable plate and the plate was scanned for absorbance. Best fit calibration curves were constructed using the calibration standards and used to determine the test sample solubility. The experiment was carried out in duplicate. Diethylstilbestrol, haloperidol, and diclofenac sodium were used as reference standards.

Data set [4] in a line: Human liver microsome stability. The class given is in vitro ADME. As to conditions: pooled human liver microsomes. As to the method: Human Liver Microsome Stability. A solution of the test compounds in phosphate buffer solution (1 μM) was incubated in pooled human liver microsomes (0.5 mg/mL) for 0, 5, 20, 30, 45 and 60 min at 37 °C in the presence and absence of NADPH regeneration system. The reaction was terminated with the addition of ice-cold acetonitrile containing system suitability standard at designated time points. […] The experiment was carried out in duplicate. Verapamil, diltiazem, phenacetin, and imipramine were used as reference standards.

The nature of another data set: Rat hepatocyte stability. It counts as in vitro ADME. As to conditions: pooled rat hepatocytes. Here is the method: Rat Hepatocyte Stability. A solution of the test compound in Krebs-Henseliet buffer solution (1 μM) was incubated in pooled rat hepatocytes (1 × 10^6 cells/mL) for 0, 15,30,45, 60, 75 and 90 min at 37 °C (5 % CO2, 95 % relative humidity). The reaction was terminated with the addition of ice-cold acetonitrile containing system suitability standard at designated time points. […] The experiment was carried out in duplicate. Diltiazem, 7-ethoxy coumarin, propranolol, and midazolam were used as reference standards.

A short description of data set [5]: eLogD (shake-flask, pH 7.4). It counts as physicochemical. As to conditions: 1-octanol/phosphate buffered saline (1:1, v/v), Shake-flask method. As to the method:
eLogD. The LogD (pH 7.4) assay was performed using a miniaturized shake flask method. A solution of a pre-saturated mixture of 1-octanol and phosphate buffered saline (PBS) (1:1, v/v) and the test compound (75 μM) was incubated at 25 °C with constant shaking (850 rpm) for 2 h. After incubation the organic and aqueous phases were separated, and samples of each phase transferred to plate for dilution. The organic phase was diluted to 1000-fold and the aqueous phase was diluted 20-fold. The samples were quantitated using LC-MS/MS. The experiment was carried out in duplicate. Propranolol, amitriptyline, and midazolam were used as reference standards.

This is an account of results in paper PMC11609934, “Exploration and characterization of the antimalarial activity of cyclopropyl carboxamides that target the mitochondrial protein, cytochrome b” (European Journal of Medicinal Chemistry, 2024).

≈ marks a conversion by molar mass, not a printed value.

As a reminder, the EC50 is the midpoint of the concentration-response curve. In general, CC50 refers to the concentration that lowers cell viability or growth by half. Lower therefore signals greater toxicity to the cells. By solubility is commonly meant the concentration that dissolves in the medium under given conditions. Low values mean little dissolved substance, high ones much dissolved substance. One may read the microsomal CLint as the rate of metabolic loss divided by the concentration. Higher therefore signals faster metabolism. The term hepatocyte CLint denotes the capacity of the preparation to metabolise the compound, expressed as a volume cleared per time. Low values mean greater metabolic stability, high ones faster metabolism. A word on the logD: it is the decadic logarithm of the distribution of all forms, ionised or not, between an organic phase and buffer at a given pH. Lower therefore signals lower lipophilicity. For the compound `O=C(NC1CC1)c1ccc(CN(Cc2ccccc2)C2CC2)cc1` [Compound 17, 4-((Benzyl(cyclopropyl)amino)methyl)-N-cyclopropylbenzamide], in data set [1], the EC50 was determined as 140 nM. Moreover, the cytotoxic concentration (CC50) at 48 h in data set [2] is more than 40000 nM. The same compound displayed a solubility at 2 h in data set [3] of 44 µM (≈ 14.1 µg/mL). The compound further showed an intrinsic clearance (microsomal CLint) at 1 h, 1 µM in data set [4] of 72 µL/min/mg. In “Rat hepatocyte stability”, this compound displayed an intrinsic clearance (hepatocyte CLint) at 1 μM of more than 92 µL/min/1e6 cells. In addition, the logD at 2 h in data set [5] was 4.
For the compound `CC(C)N(Cc1ccccc1)Cc1ccc(C(=O)NC2CC2)cc1` [Compound 21, 4-((Benzyl(isopropyl)amino)methyl)-N-cyclopropylbenzamide], in data set [1], the EC50 was 160 nM. In addition, in data set [2], the CC50 at 48 h is more than 40000 nM. Further, in data set [3], the solubility at 2 h came to 140 µM (≈ 45.1 µg/mL). The microsomal CLint at 1 h, 1 µM in data set [4] was found to be 76 µL/min/mg. In “Rat hepatocyte stability”, this compound displayed a hepatocyte CLint at 1 μM of more than 92 µL/min/1e6 cells. Moreover, in data set [5], the log distribution coefficient (logD) at 2 h turned out to be 3.5.
`O=C(NC1CC1)c1ccc(CN(Cc2ccccc2)C2CCC2)cc1` [Compound 22, 4-((Benzyl(cyclobutyl)amino)methyl)-N-cyclopropylbenzamide]: the half-maximal effective concentration (EC50) in data set [1] turned out to be 160 nM. This compound gave a cytotoxic concentration (CC50) at 48 h in data set [2] of more than 40000 nM. This compound showed a solubility at 2 h in data set [3] of 92 µM (≈ 30.8 µg/mL). In addition, the microsomal CLint at 1 h, 1 µM in data set [4] was 151 µL/min/mg. Besides, in “Rat hepatocyte stability”, the intrinsic metabolic clearance (hepatocyte CLint) at 1 μM was more than 92 µL/min/1e6 cells. In data set [5], this compound registered a log distribution coefficient (logD) at 2 h of 3.8.
On to `O=C(NC1CC1)c1ccc(CN(Cc2ccccc2)CC(F)(F)F)cc1` [Compound 25, 4-((Benzyl(2,2,2-trifluoroethyl)amino)methyl)-N-cyclopropylbenzamide], for which the EC50 in data set [1] came out at 260 nM. In addition, the CC50 at 48 h in data set [2] was more than 40000 nM. In addition, the solubility at 2 h in data set [3] came out at 11 µM (≈ 3.99 µg/mL). The compound further showed a microsomal CLint at 1 h, 1 µM in data set [4] of 79 µL/min/mg. Further, the intrinsic clearance (hepatocyte CLint) at 1 μM in “Rat hepatocyte stability” was more than 92 µL/min/1e6 cells. Also, the logD at 2 h in data set [5] was determined as 4.8.
Take `CCCN(Cc1ccccc1)Cc1ccc(C(=O)NC2CC2)cc1` [Compound 26, 4-((Benzyl(propyl)amino)methyl)-N-cyclopropylbenzamide]: the concentration for a half-maximal effect (EC50) in data set [1] came to 130 nM. In data set [2], this compound gave a 50% cytotoxic concentration (CC50) at 48 h of more than 40000 nM. This compound also yielded a solubility at 2 h in data set [3] of 83 µM (≈ 26.8 µg/mL). Further, the intrinsic clearance (microsomal CLint) at 1 h, 1 µM in data set [4] stood at 98 µL/min/mg. In addition, in the data set “Rat hepatocyte stability”, the intrinsic clearance (hepatocyte CLint) at 1 μM was more than 92 µL/min/1e6 cells. Further, in data set [5], the pH-dependent lipophilicity (logD) at 2 h is 3.7.
With `CC(C)N(Cc1ccc(C(=O)NC2CC2)cc1)C1CC1` [Compound 91, N-Cyclopropyl-4-((cyclopropyl(isopropyl)amino)methyl)benzamide], in data set [1], the concentration giving a half-maximal response (EC50) was 2600 nM. The CC50 at 48 h in data set [2] was more than 40000 nM.
On the same counts, the results for `CC(C)(C)CN(Cc1ccc(C(=O)NC2CC2)cc1)C1CC1` [Compound 93] are 460 nM and more than 40000 nM.
As to `O=C(NC1CC1)c1ccc(CN(CC2CCC2)C2CC2)cc1` [Compound 94], the EC50 in data set [1] amounted to 520 nM. The compound also came in with a CC50 at 48 h in data set [2] of more than 40000 nM.
For the compound `O=C(NC1CC1)c1ccc(CN(CC2CCCC2)C2CC2)cc1` [Compound 95], in data set [1], the EC50 worked out at 510 nM. The CC50 at 48 h in data set [2] was more than 40000 nM.
On to `O=C(NC1CC1)c1ccc(CN(CC2CCCCC2)C2CC2)cc1` [Compound 96], for which the EC50 in data set [1] is 240 nM. In addition, the CC50 at 48 h in data set [2] was more than 40000 nM.
Take `CC(c1ccccc1)N(Cc1ccc(C(=O)NC2CC2)cc1)C1CC1` (centres unmarked) [Compound 97, N-Cyclopropyl-4-((cyclopropyl(1-phenylethyl)amino)methyl)benzamide]: the EC50 in data set [1] was determined as 170 nM. This compound gave a half-maximal cytotoxic concentration (CC50) at 48 h in data set [2] of more than 40000 nM. In data set [3], this compound had a solubility at 2 h of 22 µM (≈ 7.36 µg/mL). For the same compound, the microsomal CLint at 1 h, 1 µM in data set [4] was 238 µL/min/mg. In addition, the hepatocyte CLint at 1 μM in “Rat hepatocyte stability” was more than 92 µL/min/1e6 cells. This compound also showed a pH-dependent lipophilicity (logD) at 2 h in data set [5] of 4.2.
On to `CC(c1ccc(C(=O)NC2CC2)cc1)N(Cc1ccccc1)C1CC1` (centres unmarked) [Compound 98, 4-(1-(Benzyl(cyclopropyl)amino)ethyl)-N-cyclopropylbenzamide], for which the EC50 in data set [1] was found to be 340 nM. The “fold decrease in Pf 3D7 activity relative to 17” value in data set [1] (ratio of EC50 to compound 17) was 2 fold. The compound further returned a CC50 at 48 h in data set [2] of more than 40000 nM.
Take `O=C(NC1CC1)c1ccc(CN(C2CC2)S(=O)(=O)c2ccccc2)cc1` [Compound 101]: in data set [1], the EC50 was found to be 2300 nM. Moreover, in data set [2], the CC50 at 48 h is more than 40000 nM.
Take `O=C(NC1CC1)c1ccc(S(=O)(=O)N(Cc2ccccc2)C2CC2)cc1` [Compound 102, 4-(N-Benzyl-N-cyclopropylsulfamoyl)-N-cyclopropylbenzamide]: in data set [1], the EC50 amounted to 4800 nM. Also, the CC50 at 48 h in data set [2] is more than 40000 nM.
For `O=C(NC1CC1)c1ccc(CN(Cc2ccccc2)C2CC2)cn1` [Compound 103, 5-((Benzyl(cyclopropyl)amino)methyl)-N-cyclopropylpicolinamide] the same measures were 7600 nM and more than 40000 nM.
For `O=C(NC1CC1)c1ccc(CN(Cc2ccccc2)C2CC2)nc1` [Compound 104, 6-((Benzyl(cyclopropyl)amino)methyl)-N-cyclopropylnicotinamide] the same measures were 3500 nM and more than 40000 nM.
In the case of `O=C(NC1CC1)c1cnc(CN(Cc2ccccc2)C2CC2)s1` [Compound 105, 2-((Benzyl(cyclopropyl)amino)methyl)-N-cyclopropylthiazole-5-carboxamide], in data set [1], the concentration giving a half-maximal response (EC50) was found to be 2400 nM. The compound also yielded a 50% cytotoxic concentration (CC50) at 48 h in data set [2] of more than 40000 nM.
